The results in this text go back to patent publication US20190040063A1, “TRICYCLIC COMPOUND FOR BROMODOMAIN-CONTAINING PROTEIN INHIBITOR AND PREPARATION PHARMACEUTICAL COMPOSITION, AND APPLICATION THEREOF” (CHIA TAI TIANQING PHARMACEUTICAL GROUP CO., LTD., priority 2016, published 2019).

The target in one assay is T1, BRD4 (Homo sapiens, UniProt O60885).
T1 construct: GST-BRD4 (51-462) (purchased from Cisbio); purchased Cisbio
The assay is described as follows: In vitro enzymatic activity assay: inhibition of BRD4 enzyme binding reaction by HTRF. Particulars: GST-BRD4 (51-462) 1 nM, acetylated short peptide 100 nM, 23° C., 60 min. The protocol:
IC50 values of the compounds of the present application in inhibiting BRD4 enzyme binding reaction were determined by homogeneous time resolved fluorescence (HTRF). A compound was serially diluted 5-fold with 100% DMSO starting from 1 mM (totally 7 concentrations). 2 μL of the compound at each concentration was added into 48 μL of a reaction buffer solution (20 mM HEPES pH7.5, 150 mM NaCl, 5 mM DTT, 0.005% Tween 20 and 100 μg/ml BSA) to be diluted and fully mixed. Then 2.5 μL of the resulting mixture was added to a 384-well plate (OptiPlate-384, purchased from PerkinElmer), 5 μL of GST-BRD4 (51-462) (purchased from Cisbio) (final concentration: 1 nM) was added, and the resulting mixture was centrifuged, and fully mixed. Then 2.5 μL of a short peptide Biotin-AHA-SGRGK(Ac)GGK-(Ac)GLGK(Ac)GGAK(Ac)RHRKV) (synthesized by GL Biochem (Shanghai) Ltd) (final concentration: 100 nM) was added to initiate the reaction (total reaction volume: 10 μL). The 384-well plate was placed in an incubator at 23° C. to react for 60 min, and then 5 μL of Eu3+ cryptate-labeled anti-GST antibody (purchased from Cisbio) and 5 μL of Streptavidin-XL-665 (purchased from Cisbio) were added to terminate the reaction. After an additional 1 hour incubation in the incubator, the fluorescence values (excited at 320 nm, emitted light at 665 nm and 620 nm being detected, and the ratio of the two being the enzyme binding signal) were read on Envision (purchased from PerkinElmer). The binding strength of each compound to the BRD4 protein was determined respectively at 7 concentrations, and the data were calculated with GraphPad Prism software to obtain the IC50 value of the compound.

In a further assay the test system is MV4-11 cells. The assay is described as follows: Cell proliferation activity assay (Cell-Titer Blue). Type of assay: cell-based. Conditions: Homo sapiens, inhibiting cell proliferation, 72 h co-incubation. As for the experimental part: Human acute […] leukemia cell line MV4-11 cells were cultured in PRIM1640 medium plus 10% fetal bovine serum (FBS, purchased from Biological Industries, BI) and 1% penicillin/streptomycin double antibody solution (P/S, purchased from Life Technology) at 37° C. with 5% CO2. On the day before the compound was tested, the MV4-11 cells were spread in a 96-well plate (purchased from Corning) at a concentration of 8,000 cells/195 μL/well. On the next day, the compound was serially diluted 3-fold with 100% DMSO starting from 10 mM (totally 10 concentrations). 2 μL of the resulting mixture at each concentration was diluted with 48 μL of PRIM1640 medium (purchased from Life Technology). 5 μL of the diluted compound at each concentration was added to the spread cell suspension, and the compound and cells were co-incubated in a cell incubator for 72 h (3 days), and then incubated for additional 4 h after adding 35 μL of Cell-Titer Blue reagent (purchased from Promega). Then the fluorescence values (excited at 560 nm, detected at 590 nm) were read on Flexstation III (purchased from Molecular Devices), and the data were calculated with GraphPad Prism software to obtain the IC50 value of the compound in inhibiting cell proliferation.

As for `COc1ccc2c(n1)c1ncc(-c3c(C)noc3C)cc1n2C(c1ccccc1)C1CCOCC1` (stereo not drawn) [Compound 1, 4-{8-Methoxy-5-[phenyl(tetrahydro-2H-pyran-4-yl)methyl]-5H-pyrrolo[3,2-b:4,5-b′]dipyridin-3-yl}-3,5-dimethylisoxazole], the IC50 (in general, the point on the concentration scale where inhibition reaches its midpoint) at BRD4 was under 2 nM.
The molecule `CCOC(=O)c1cc2c(cn1)c1ncc(-c3c(C)noc3C)cc1n2C(c1ccccc1)C1CCOCC1` (stereo not drawn) [Compound 3, Ethyl 3-(3,5-dimethylisoxazol-4-yl)-5-[phenyl(tetrahydro-2H-pyran-4-yl)methyl]-5H-pyrrolo[2,3-b:4,5-c′]dipyridine-7-carboxylate] had an IC50 at BRD4 of under 2 nM.
In the case of `Cc1noc(C)c1-c1cnc2c3cnc(C(C)(C)O)cc3n(C(c3ccccc3)C3CCOCC3)c2c1` (stereo not drawn) [Compound 4, 2-{3-(3,5-Dimethylisoxazol-4-yl)-5-[phenyl(tetrahydro-2H-pyran-4-yl)methyl]-5H-pyrrolo[3,2-b:4,5-c′]dipyridin-7-yl}propan-2-ol], the results for the IC50 at BRD4 and with MV4-11 cells were under 2 nM and under 10 nM, respectively.
For `Cc1noc(C)c1-c1cnc2c3ccc(C(C)(C)O)nc3n(C(c3ccccc3)C3CCOCC3)c2c1` (stereo not drawn) [Compound 6, 2-{3-(3,5-Dimethylisoxazol-4-yl)-5-[phenyl(tetrahydro-2H-pyran-4-yl)methyl]-5H-pyrrolo[2,3-b:4,5-b′]dipyridin-7-yl}propan-2-ol], the IC50 at BRD4 is under 2 nM.
On to `CCOC(=O)c1cc2c(cn1)c1ncc(-c3c(C)noc3C)cc1n2[C@H](c1ccccc1)C1CCOCC1` [Compound 9, Ethyl (S)-3-(3,5-dimethylisoxazol-4-yl)-5-[phenyl(tetrahydro-2H-pyran-4-yl)methyl]-5H-pyrrolo[3,2-b:4,5-c′]dipyridine-7-carboxylate], for which the IC50 on BRD4 was under 2 nM.
Take `Cc1noc(C)c1-c1cnc2c3cnc(C(C)(C)O)cc3n([C@H](c3ccccc3)C3CCOCC3)c2c1` [Compound 10, (S)-2-{3-(3,5-dimethylisoxazol-4-yl)-5-[phenyl(tetrahydro-2H-pyran-4-yl)methyl]-5H-pyrrolo[3,2-b:4,5-c′]dipyridin-7-yl}propan-2-ol]: the IC50 at BRD4 was under 2 nM; in the assay on MV4-11 cells, under 10 nM.
Take `Cc1noc(C)c1-c1cnc2c3cnc(C(C)(C)O)cc3n([C@@H](c3ccccc3)C3CCOCC3)c2c1` [Compound 12, (R)-2-{3-(3,5-dimethylisoxazol-4-yl)-5-[phenyl(tetrahydro-2H-pyran-4-yl)methyl]-5H-pyrrolo[3,2-b:4,5-c′]dipyridin-7-yl}propan-2-ol]: the IC50 on BRD4 is under 2 nM; with MV4-11 cells it was under 10 nM.
For `Cc1noc(C)c1-c1cnc2c3ccc(C(C)(C)O)nc3n([C@H](c3ccccc3)C3CCOCC3)c2c1` [Compound 16, (S)-2-{3-(3,5-dimethylisoxazol-4-yl)-5-[phenyl(tetrahydro-2H-pyran-4-yl)methyl]-5H-pyrrolo[2,3-b:4,5-b′]dipyridin-7-yl}propan-2-ol] the same measures were under 2 nM and under 10 nM.
At BRD4, `Cc1nnn(C)c1-c1cnc2c3ccc(C(C)(C)O)nc3n(C(c3ccccc3)C3CCOCC3)c2c1` (stereo not drawn) [Compound 20, 2-(3-(1,4-Dimethyl-1H-1,2,3-triazol-5-yl)-5-[phenyl(tetrahydro-2H-pyran-4-yl)methyl]-5H-pyrrolo[2,3-b:4,5-b′]dipyridin-7-yl)propan-2-ol] came in with an IC50 of under 2 nM.
For the molecule `Cc1noc(C)c1-c1cnc2c3ncc(C(C)(C)O)cc3n(C(c3ccccc3)C3CCOCC3)c2c1` (stereo not drawn) [Compound 22, 2-(7-(3,5-Dimethylisoxazol-4-yl)-5-(phenyl(tetrahydro-2H-pyran-4-yl)methyl]-5H-pyrrolo[3,2-b:4,5-b′]dipyridin-3-yl)propan-2-ol], the IC50 at BRD4 is under 2 nM; in the assay with MV4-11 cells it was under 10 nM.
`Cc1noc(C)c1-c1cc(F)c2c3ncc(C(C)(C)O)cc3n(C(c3ccccc3)C3CCOCC3)c2c1` (stereo not drawn) [Compound 24, 2-{7-(3,5-dimethylisoxazol-4-yl)-9-fluoro-5-[phenyl(tetrahydro-2H-pyran-4-yl)methyl]-5H-pyridino[3,2-b]indol-3-yl}propan-2-ol]: the IC50 on BRD4 is under 2 nM; in the assay on MV4-11 cells, under 10 nM.
As to `Cc1noc(C)c1-c1cnc2c3ccncc3n(C(c3ccccc3)C3CCOCC3)c2c1` (stereo not drawn) [Compound 37, 3,5-Dimethyl-4-{5-[phenyl(tetrahydro-2H-pyran-4-yl)methyl]-5H-pyrrolo[3,2-b:5,4-c′]dipyridin-3-yl}isoxazole], the IC50 on BRD4 is under 2 nM.
The same measure, in the same setting: in the case of `CCCC(CCC)n1c2cc(C(C)(C)O)ncc2c2ncc(-c3c(C)noc3C)cc21` [Compound 39, 2-[3-(3,5-Dimethylisoxazol-4-yl)-5-(heptan-4-yl)-5H-pyrrolo[3,2-b:4,5-c′]dipyridin-7-yl]propan-2-ol] it was under 2 nM.
As for `Cc1noc(C)c1-c1cnc2c3cnc(C(C)(C)O)cc3n(C(c3ccccc3)c3cscn3)c2c1` (stereo not drawn) [Compound 41, 2-{3-(3,5-Dimethylisoxazol-4-yl)-5-[phenyl(thiazol-4-yl)methyl]-5H-pyrrolo[3,2-b:4,5-c′]dipyridin-7-yl}propan-2-ol], the IC50 at BRD4 was under 2 nM.
With `Cc1noc(C)c1-c1cnc2c3ccc(O)nc3n(C(c3ccccc3)C3CCOCC3)c2c1` (stereo not drawn) [Compound 43, 3-(3,5-Dimethylisoxazol-4-yl)-5-[phenyl(tetrahydro-2H-pyran-4-yl)methyl]-5H-pyrrolo[2,3-b:4,5-b′]dipyridine-7-ol], the IC50 at BRD4 is under 2 nM; with MV4-11 cells it was under 10 nM.
With `Cc1noc(C)c1-c1cnc2c3ccc(C(N)=O)nc3n(C(c3ccccc3)C3CCOCC3)c2c1` (stereo not drawn) [Compound 50, 3-(3,5-Dimethylisoxazol-4-yl)-5-[phenyl(tetrahydro-2H-pyran-4-yl)methyl]-5H-pyrrolo [2,3-b:4,5-b′]dipyridine-7-carboxamide], the results for the IC50 on BRD4 and with MV4-11 cells were under 2 nM and under 10 nM, respectively.
Turning to `Cc1noc(C)c1-c1cnc2c3ccc(N)nc3n(C(c3ccccc3)C3CCOCC3)c2c1` (stereo not drawn) [Compound 52, 3-(3,5-Dimethylisoxazol-4-yl)-5-[phenyl(tetrahydro-2H-pyran-4-yl)methyl]-5H-pyrrolo[2,3-b:4,5-b′]dipyridine-7-amine], the IC50 was under 2 nM on BRD4 and under 10 nM with MV4-11 cells.
Turning to `CON(C)C(=O)c1ccc2c3ncc(-c4c(C)noc4C)cc3n(C(c3ccccc3)C3CCOCC3)c2n1` (stereo not drawn) [Compound 55, 3-(3,5-Dimethylisoxazol-4-yl)-N-methoxy-N-methyl-5-[phenyl(tetrahydro-2H-pyran-4-yl)methyl]-5H-pyrrolo[2,3-b:4,5-b′]dipyridine-7-carboxamide], the IC50 at BRD4 is under 2 nM.
Take `CC(=O)c1ccc2c3ncc(-c4c(C)noc4C)cc3n(C(c3ccccc3)C3CCOCC3)c2n1` (stereo not drawn) [Compound 56, 1-{3-(3,5-Dimethylisoxazol-4-yl)-5-[phenyl(tetrahydro-2H-pyran-4-yl)methyl]-5H-pyrrolo[2,3-b:4,5-b′]dipyridin-7-yl}ethyl-1-one]: the IC50 on BRD4 was under 2 nM.
As for `Cc1noc(C)c1-c1cnc2c3ccc(C(C)O)nc3n(C(c3ccccc3)C3CCOCC3)c2c1` (stereo not drawn) [Compound 57, 1-{3-(3,5-Dimethylisoxazol-4-yl)-5-[phenyl(tetrahydro-2H-pyran-4-yl)methyl]-5H-pyrrolo[2,3-b:4,5-b′]dipyridin-7-yl}ethan-1-ol], the half-inhibitory concentration (IC50) at BRD4 was under 2 nM.
On BRD4, `Cc1noc(C)c1-c1cnc2c3ccc(C(C)(C)O)nc3n(C(c3ncccc3F)C3CCOCC3)c2c1` (stereo not drawn) [Compound 60] had an IC50 of under 2 nM.
